Values after ≈ are worked out from the molar mass of the structure shown. Where only a bound is given, the exact number is not on record here.

Results on ten compounds are retold here after US12202790B2, “Sulfonamide derivatives having selective Nox inhibiting activity” (GLUCOX BIOTECH AB, priority 2018, dated 2025).

One data set can be described thus: DPPH redox assay. On the set-up: key: The sign “—” stands for “inactive”. The conditions noted are these: redox activity control. Here is the method: DPPH, a well-known sensitive chemical of monitoring reactions involving radicals described by Xiong Q, et al., Biol Pharm Bull 1996; 19:1580-1585, was used as control to exclude any redox active compound. DPPH was incubated with decreasing concentrations (200-0.003 μM) of compounds of the invention or prior art compound GKT136901 (as a positive control). The plate was kept in the dark for 60 min, after which the absorbance of the solution was measured at 518 nm.
Background: The DPPH test is a chemical assay of radical scavenging.

A short description of data set [1]: Determination of solubility. The class given is physicochemical. Particulars: 10 mM potassium phosphate buffer, aqueous buffer, kinetic from dmso stock; 10 mM potassium phosphate pH 7.4, 24 h, room temperature; read-out: Kinetic solub. Here is the method: Two μl of test compound (from 10 mM DMSO stock) were diluted 100× in 10 mM potassium phosphate pH 7.4 in a HPLC glass vial, sealed and incubated for 24 h under rotation (900 rpm) at room temperature. After the incubation 150 μl were transferred to conical glass inserts and centrifuged for 20 min at 10,000×g. Two μl of the supernatant were transferred to a 96-well plate, diluted 100× with acetonitrile/H2O (60/40, vol/vol) and analyzed by LC-MS/MS.

The target in another data set is Nox1 (Homo sapiens (Human), UniProt Q9Y5S8). Put plainly: Amplex Red assay of Nox1 expressing CHO cells. The class given is cell-based. On the set-up: key to IC50 Nox1: The sign “—” stands for “inactive”. Here is the method: (§1) HEK293 overexpressing Nox4 (CJ Nox4) cells were purchased from Redoxis, Lund, Sweden. HEK 293 cells expressing Nox5, Nox3 (HEK TRex) and CHO cells expressing Nox1, were a kind gift from Vincent Jaque Center Medical Universitaire, Geneva, Switzerland. Nox2 expressed in isolated neutrophils were isolated from whole blood (human), as previously described (Anvari E, et al., Free Radic Res 2015; 49:1308-1318).
Chain of Nox1 (Q9Y5S8 whole entry): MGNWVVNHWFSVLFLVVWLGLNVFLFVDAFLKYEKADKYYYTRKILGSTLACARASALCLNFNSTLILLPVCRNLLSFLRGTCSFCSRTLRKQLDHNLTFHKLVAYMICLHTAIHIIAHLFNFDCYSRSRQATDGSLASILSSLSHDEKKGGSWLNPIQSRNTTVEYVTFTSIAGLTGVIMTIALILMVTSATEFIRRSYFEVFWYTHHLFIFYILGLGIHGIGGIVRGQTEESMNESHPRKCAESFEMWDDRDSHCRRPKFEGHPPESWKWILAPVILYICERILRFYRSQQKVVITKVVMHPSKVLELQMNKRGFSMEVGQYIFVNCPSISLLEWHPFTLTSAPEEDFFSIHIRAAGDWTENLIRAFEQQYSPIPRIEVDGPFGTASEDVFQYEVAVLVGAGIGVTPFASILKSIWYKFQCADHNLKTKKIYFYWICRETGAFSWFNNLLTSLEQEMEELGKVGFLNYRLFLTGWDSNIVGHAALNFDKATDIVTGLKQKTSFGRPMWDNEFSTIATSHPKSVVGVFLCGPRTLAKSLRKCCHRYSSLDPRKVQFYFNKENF
Chain of Nox1 (P13498 2-195 partner): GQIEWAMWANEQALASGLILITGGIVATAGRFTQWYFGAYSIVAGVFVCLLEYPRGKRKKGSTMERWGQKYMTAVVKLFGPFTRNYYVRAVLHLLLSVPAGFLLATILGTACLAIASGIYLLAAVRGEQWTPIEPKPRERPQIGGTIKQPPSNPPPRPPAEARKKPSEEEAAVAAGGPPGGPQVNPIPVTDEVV
CHO cells expressing Nox1 were cultured in DMEM 12 medium (DMEM/F12) supplemented with FBS (10%), penicillin (100 U/ml) and streptomycin (100 μg/ml) at 37° C. in air with 5% CO2.
(§2) Reactive oxygen produced in whole cells or in membrane preparation of Nox1, Nox3, Nox4, Nox5 and xanthine oxidase and glucose oxidase were determined using Amplex Red as detection probe of formed H2O2. Amplex Red (10-acetyl-3,7-dihydroxyphenoxazine) in combination with HRP and co-factors reacts with H2O2 in a 1:1 stoichiometry to form a highly fluorescent resorufin excitated at 544 nm producing emission at 590 nm.
(§3) Adherent cells (CHO, HEK) were collected by trypsinization, centrifuged, washed with HBSS, counted, and resuspended in HBSS. Cells were seeded in 96-well black flat bottom plates at a density of 50,000-100,000 cells/well. All compounds were dissolved in DMSO and concentrations ranging from 0.003 to 200 μM were tested in Nox cellular assays with a final concentration of DMSO of 1%. Cells were incubated at 37° C. with the compounds for 30 minutes before measurement. Cells expressing Nox1 and Nox2 were activated with the PKC activator PMA (0.1 μM). Nox5 was activated with the Ca2+ ionophore ionomycin (1 μM) and further enforced with PMA. The CJ HEK 293 cells overexpressed Nox4 constitutively. In the HTS screen HEK 293 TRex was used and tetracycline ([…]) was added 18 h before measurement to induce Nox4 expression. Production of hydrogen peroxide by Nox in intact cells was measured using Amplex Red fluorescence as described by Jaquet V, et al., Br J Pharmacol 2011; 164:507-520. Assay reagents including HRP ([…]) and Amplex Red (50 μM) were added to initiate production of hydrogen peroxide. Fluorescence was read in a fluorescence plate reader at 37° C. every minute between 30-60 minutes.

The target of another data set is Nox5 (Homo sapiens (Human), UniProt Q96PH1). The experiment in a line: Amplex Red assay of Nox5 expressing HEK cells. The class given is cell-based. On the set-up: key: The sign “—” stands for “inactive”.
Chain of Nox5 (Q96PH1 whole entry): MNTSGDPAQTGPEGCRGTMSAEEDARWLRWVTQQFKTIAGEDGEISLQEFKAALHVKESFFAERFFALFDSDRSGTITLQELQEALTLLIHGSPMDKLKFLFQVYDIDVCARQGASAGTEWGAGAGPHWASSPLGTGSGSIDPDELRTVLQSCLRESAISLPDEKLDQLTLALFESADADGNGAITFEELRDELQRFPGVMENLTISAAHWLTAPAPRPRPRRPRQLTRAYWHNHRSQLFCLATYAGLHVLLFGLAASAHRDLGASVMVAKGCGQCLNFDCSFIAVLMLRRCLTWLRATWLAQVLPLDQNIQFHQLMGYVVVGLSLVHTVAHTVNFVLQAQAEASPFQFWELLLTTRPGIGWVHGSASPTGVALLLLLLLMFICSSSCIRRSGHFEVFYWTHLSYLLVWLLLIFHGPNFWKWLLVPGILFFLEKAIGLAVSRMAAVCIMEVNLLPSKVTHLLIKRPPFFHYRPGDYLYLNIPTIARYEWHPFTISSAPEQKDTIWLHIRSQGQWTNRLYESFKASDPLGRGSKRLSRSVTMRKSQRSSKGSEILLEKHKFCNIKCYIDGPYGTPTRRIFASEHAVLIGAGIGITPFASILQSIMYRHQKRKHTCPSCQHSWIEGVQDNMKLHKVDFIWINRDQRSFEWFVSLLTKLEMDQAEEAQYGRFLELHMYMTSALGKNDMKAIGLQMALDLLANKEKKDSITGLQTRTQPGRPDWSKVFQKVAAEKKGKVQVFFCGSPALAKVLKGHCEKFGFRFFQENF
Source text: as §1
HEK293T cells expressing tetracycline-inducible human (Nox3 or Nox4) and HEK293 cells stably expressing human Nox5 were generated as described previously (Serrander et al., 2007a,b). HEK cells were cultured in Dulbecco's modified Eagle medium (DMEM) with 4.5 g/l glucose, supplemented with FBS (10%), penicillin (100 U/ml) and streptomycin […] at 37° C. in air with 5% CO2.
as §2, §3

Data set [2] is described as follows: Plasma protein binding, mouse. The class given is in vitro ADME. The conditions noted are these: 10 μM in plasma, equilibrium dialysis 4 h, read-out: fu % mouse plasma protein. Here is the method: Example compounds were incubated at 10 μM in plasma and then equilibrium dialysed for 4 h, using a rapid equilibrium device. Protein binding (fu %) was determined by LS/MS as previously described (Anvari E, et al., vide supra).

The nature of data set [3]: Microsomal metabolic stability, human. Particulars: pooled liver microsomes, pH 7.4, read-out: Metab. stab, human t1/2. The class given is in vitro ADME. Here is the method:
The microsomal metabolic stability assay utilizes pooled human, or animal (mouse) species, liver microsomes with supplemented cofactor (NADPH) to primarily facilitate cytochrome P450 (CYP) reactivity against target compound. Test compound (1 μM incubation concentration) and microsomes (0.5 mg/ml incubation concentration) were diluted in 0.1 M phosphate buffer, pH 7.4, in a volume of 150 μl. The reaction was initiated with addition of NADPH (1 mM). The incubation times were 0, 5, 15, 40 min and the reaction was quenched, at each time point, by addition of 100 μl acetonitrile containing Warfarin as IS. The plate was then sealed, centrifuged and frozen at −20 C until LC-MS/MS analysis.
Background: Liver microsomes are a subcellular fraction often used to study metabolism.

In data set [4] the target is Nox4 expressing HEK293 cells (Homo sapiens (Human), UniProt Q9NPH5). Put plainly: Oxygen consumption in Nox4 expressing HEK293 cells. It counts as cell-based.
Chain of Nox4 expressing HEK293 cells (Q9NPH5 whole entry): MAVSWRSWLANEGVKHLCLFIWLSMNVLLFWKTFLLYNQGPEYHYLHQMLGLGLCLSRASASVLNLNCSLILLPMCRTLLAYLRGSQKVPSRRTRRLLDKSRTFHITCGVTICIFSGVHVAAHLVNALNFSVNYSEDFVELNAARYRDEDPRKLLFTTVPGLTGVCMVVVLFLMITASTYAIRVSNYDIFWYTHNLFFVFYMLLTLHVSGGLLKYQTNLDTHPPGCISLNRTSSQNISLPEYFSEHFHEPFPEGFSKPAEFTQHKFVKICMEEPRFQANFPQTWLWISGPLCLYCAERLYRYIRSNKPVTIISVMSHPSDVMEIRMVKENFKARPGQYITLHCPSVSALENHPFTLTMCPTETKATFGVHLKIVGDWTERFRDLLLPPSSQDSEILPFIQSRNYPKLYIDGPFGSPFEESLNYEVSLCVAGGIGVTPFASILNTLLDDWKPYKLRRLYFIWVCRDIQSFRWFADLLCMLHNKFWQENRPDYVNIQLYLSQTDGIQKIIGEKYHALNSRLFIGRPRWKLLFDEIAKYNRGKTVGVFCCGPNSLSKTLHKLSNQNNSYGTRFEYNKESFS
Chain of Nox4 expressing HEK293 cells (P13498 2-195 partner): as the sequence (P13498 2-195 partner) above

As to `O=S(=O)(NCCc1ccccc1O)c1c(Cl)cc(Br)cc1Cl` [Example 38, 4-bromo-2,6-dichloro-N-[2-(2-hydroxyphenyl)ethyl]benzenesulfonamide], the “IC50 DPPH” value in the data set “DPPH redox assay” is listed as “—”. The solubility kinetic at 24 h in data set [1] is 77 µM (≈ 32.7 µg/mL). Moreover, the “IC50 Nox1” value at Nox1 is recorded as “—”. For the same compound, the “IC50 Nox5” value on Nox5 is on record as “—”. Moreover, the fraction unbound at 4 h, 10 μM in data set [2] stood at 0.0056. Further, in data set [3], the half-life at 1 μM was in the range of 9 to 11 min.

For `Cc1cc(C)c(S(=O)(=O)NCCc2ccccc2O)c(C)c1` [Example 37, N-[2-(2-hydroxyphenyl)ethyl]-2,4,6-trimethylbenzene-1-sulfonamide], the “IC50 DPPH” value in the data set “DPPH redox assay” was “—”. The solubility kinetic at 24 h in data set [1] was > 100 µM. The “IC50 Nox1” value at Nox1 is on record as “—”. Moreover, the “IC50 Nox5” value on Nox5 is “—”. For the same compound, the fraction unbound at 4 h, 10 μM in data set [2] was determined as 0.0056. Further, the half-life at 1 μM in data set [3] is 6 to 10 min.

Take `Cc1ccccc1CCNS(=O)(=O)c1c(C)cccc1Cl` [Example 11, 2-chloro-6-methyl-N-[2-(2-methylphenyl)ethyl]benzene-1-sulfonamide]: the “IC50 DPPH” value in the data set “DPPH redox assay” was “—”. The “Inhibition of oxygen consumption in Nox4 expressing HEK293 cells” value (shortened to “Inhibition of oxygen consumption”) in data set [4] is “yes”. The “IC50 Nox1” value at Nox1 is reported as “—”. Also, on Nox5, the “IC50 Nox5” value is on record as “—”.

`Cc1cc(O)cc(C)c1S(=O)(=O)NCCc1ccccc1O` [Example 48, 4-hydroxy-N-[2-(2-hydroxyphenyl)ethyl]-2,6-dimethyl-benzenesulfonamide]: the “IC50 DPPH” value in “DPPH redox assay” was “—”. The solubility kinetic at 24 h in data set [1] came out at 97 µM (≈ 31.2 µg/mL). Besides, the “IC50 Nox1” value on Nox1 is reported as “—”. Moreover, the “IC50 Nox5” value at Nox5 is recorded as “—”. In addition, the fraction unbound at 4 h, 10 μM in data set [2] stood at 0.005. Further, the half-life at 1 μM in data set [3] stood at 69 min.

Turning to `Cc1cc(Cl)c(S(=O)(=O)NCCc2ccccc2O)c(C)c1O` [Example 44, 6-chloro-3-hydroxy-N-[2-(2-hydroxyphenyl)ethyl]-2,4-dimethyl-benzenesulfonamide], the “IC50 DPPH” value in the data set “DPPH redox assay” is reported as “—”. Moreover, the solubility kinetic at 24 h in data set [1] worked out at 94 µM (≈ 33.4 µg/mL). Further, the “IC50 Nox1” value on Nox1 is listed as “—”. Further, the “IC50 Nox5” value at Nox5 is “—”. Further, in data set [2], the fraction unbound at 4 h, 10 μM is 0.025. Besides, the half-life at 1 μM in data set [3] came to 36 min.

In the case of `COc1cc(C)c(S(=O)(=O)NCCc2ccccc2Cl)c(C)c1` [Example 46, N-[2-(2-chlorophenyl)ethyl]-4-methoxy-2,6-dimethyl-benzenesulfonamide], the “IC50 DPPH” value in “DPPH redox assay” was “—”. The solubility kinetic at 24 h in data set [1] was determined as 16 µM (≈ 5.66 µg/mL). The “IC50 Nox1” value at Nox1 is reported as “—”. Also, on Nox5, the “IC50 Nox5” value was “—”. In addition, the fraction unbound at 4 h, 10 μM in data set [2] amounted to 0.0021. The half-life at 1 μM in data set [3] is 2 min.

With `Cc1ccccc1CCNS(=O)(=O)c1c(Cl)cc(Br)cc1Cl` [Example 17, 4-bromo-2,6-dichloro-N-[2-(2-methylphenyl)ethyl]benzene-1-sulfonamide], the “IC50 DPPH” value in “DPPH redox assay” is given as “—”. For the same compound, in data set [1], the solubility kinetic at 24 h came to 0.16 µM (≈ 0.0677 µg/mL). Moreover, in data set [4], the “Inhibition of oxygen consumption” value is on record as “yes”. Also, the “IC50 Nox1” value at Nox1 is listed as “—”. Also, at Nox5, the “IC50 Nox5” value is “—”. In addition, the fraction unbound at 4 h, 10 μM in data set [2] stood at 0.0004. In data set [3], the half-life at 1 μM was 3 to 4 min.

For the compound `O=S(=O)(NCCc1ccccc1Cl)c1c(Cl)cc(C2CC2)cc1Cl` [Example 26, 2,6-dichloro-N-[2-(2-chlorophenyl)ethyl]-4-cyclopropylbenzene-1-sulfonamide], in “DPPH redox assay”, the “IC50 DPPH” value is “—”. Besides, the “Inhibition of oxygen consumption” value in data set [4] is “yes”. Moreover, the “IC50 Nox1” value on Nox1 is “—”. Besides, the “IC50 Nox5” value on Nox5 is listed as “—”.

On to `COc1cc(C)c(S(=O)(=O)NCCc2ccccc2O)c(C)c1` [Example 47, N-[2-(2-hydroxyphenyl)ethyl]-4-methoxy-2,6-dimethyl-benzenesulfonamide], for which the “IC50 DPPH” value in “DPPH redox assay” is “—”. Also, in data set [1], the solubility kinetic at 24 h is > 100 µM. For the same compound, the “IC50 Nox1” value at Nox1 was “—”. Further, on Nox5, the “IC50 Nox5” value was “—”. The fraction unbound at 4 h, 10 μM in data set [2] came out at 0.017. Further, the half-life at 1 μM in data set [3] was found to be 14 min.

In the case of `Cc1ccccc1C(F)CNS(=O)(=O)c1c(Cl)cc(Br)cc1Cl` (racemic) [Example 35, 4-bromo-2,6-dichloro-N-[2-fluoro-2-(2-methylphenyl)ethyl]benzene-1-sulfonamide], the “IC50 DPPH” value in the data set “DPPH redox assay” was “—”. Further, in data set [1], the solubility kinetic at 24 h was found to be 4.5 µM (≈ 1.99 µg/mL). The “IC50 Nox1” value on Nox1 was “—”. Also, the “IC50 Nox5” value on Nox5 is “—”. Further, the fraction unbound at 4 h, 10 μM in data set [2] came to 0.0002. Besides, the half-life at 1 μM in data set [3] lay within 11 to 13 min.
